Reference: patent publication US20230257385A1, “SALT AND SOLID FORMS OF TABERNANTHALOG” (priority 2021, published 2023)

Experiments:
[1] = DVS 0 to 90 to 0% RH (mass equilibrated); assay type: physicochemical
[2] = SIF buffer solubility panel (FaSSIF, FeSSIF, FaSSGF); assay type: physicochemical; conditions: 37° C., up to 24 h (timepoints t=0, 1 h, 3 h, 6 h, 24 h)
[3] = Thermal study: glass transition temperature (Tg) of amorphous monofumarate and sorbate; assay type: physicochemical
Method: Each salt was analysed by DSC and TGA to determine the Tg of the amorphous form. Amorphous forms were generated by thermocycling the salt past the melt temperature, cooling the sample, and once cooled the samples were reheated. Open pan and sealed pan DSC were utilised, open pan DSC were heated past the melt event, cooled, and left to stand under ambient conditions overnight.
Sealed pans were immediately cycled with no time left to stand.
TGA (open pan) samples were analysed by thermocycle, with no time for the sample to stand under ambient conditions.
The amorphous forms were generated in these studies and characterised with their Tg being measured.
A hot stage microscope heating block was used to generate the amorphous phase in-situ, to allow analysis by XRPD. A silicon XRPD sample plate was loaded with the appropriate salt. The plate was heated past the melt event, removed from the hot stage microscope block and cooled to ambient in air and analysed by XRPD to ensure that the amorphous form was generated. The amorphous material was then analysed by ^1H NMR and LC-MS to ensure there was no change in chemical composition.
Two DSC pans were charge with the appropriate salt (Tabernanthalog·Sorbate, A1270−076-A1 and Tabernanthalog·Monofumarate, Tabernanthalog·Monofumarate), the first DSC pan was not sealed (open pan DSC), the second was sealed (hermetic sealed pan DSC). The open pan DSC was cycled from 20° C. to just after the melt event for each, cooled to −20° C. and left to stand under ambient conditions over night. The open pan DSC was then heated to just before the thermal degradation event (Tabernanthalog·Sorbate ca. 160° C., Tabernanthalog·Monofumarate ca. 210° C.) The hermetic sealed DSC was heated from 20° C. to just after the melt event, cooled to −20° C. then headed to just before the same degradation event.
Two TGA crucibles were charged with the appropriate salt (Tabemanthalog·Sorbate, A1270-076-A1, Tabernanthalog·Monofumarate, Tabernanthalog·Monofumarate), both were thermocycled from 20° C. to past the melt event and then cooled to −20° C., each pan was then immediately heated to just before the degradation event to measure the Tg event.

[4] = Amorphous study (freeze drying, evaporation, spray drying, bead milling) of monofumarate and sorbate; assay type: physicochemical; conditions: 50 mg
Description: The purpose of this study was to generate amorphous material to be characterized and used in water activity studies. To achieve this, the two salts were exposed to a variety of techniques in attempts to generate the amorphous forms, including freeze drying, evaporation, vacuum desiccation and cryodesiccation spray drying. These techniques were not successful for the two salts Tabernanthalog·Monofumarate and Tabernanthalog·Sorbate.
Bead milling was attempted to generate the amorphous form of Tabernanthalog·Sorbate (Tabernanthalog·Sorbate, Form A). The salt underwent neat milling and separately with the addition of tetradecafluorohexane (TDFH). The following experiments were performed: Experiment 6-Sample A1 (30 Hz, 2 h), Experiment 6-Sample A2 (30 Hz, 5.5 h) and Experiment 6-Sample A3 (30 Hz 1 h, TDFH), the products from each experiment was analysed by XRPD to determine the extent of crystallinity (FIG. 812). None of the experiments provided amorphous material.
Each salt was charged to a 7 ml vial (50 mg, 1.0 wt). To the vial containing Tabernanthalog·Monofumarate (Tabernanthalog·Monofumarate), was charged water (10.0 vol), to fully dissolve the sample. Tabernanthalog·Sorbate (A1270-076-A1) was taken-up in ethanol/water (15% v/v, 10 vol), a further charge of water (1.0 ml), was added to ensure that the sample dissolved.
Vials containing the salt solutions were placed on the freeze drier apparatus overnight, and the cryo-desiccated products were recovered the following morning and analysed by XRPD each product remained crystalline.
Tabernanthalog·Monofumarate (A1272−082-A2, 51.1 mg, 1.0 wt) was charged to a 7 ml scintillation vial followed by THE (2 ml, […]), the suspension was heated to 50° C., until full dissolution was observed. The vial was stoppered by foil and a pin hole was pierced in the top. The vial was located under a steady N2 stream.
Tabernanthalog·Sorbate (A1270−076-A1, 99.4 mg, 1.0 wt) was charged to a 7 ml scintillation vial, followed by hexafluoroisopropanol (HFIPA, 5.0 vol, 0.5 ml), after which, the sample fully dissolved. The cap was replaced by foil and pierced on the top. Solvent was allowed to evaporate, to afford a dry, brown solid that was analysed by XRPD yielding crystalline pattern #7. Sample were dried under N2 stream for 5 h and reanalysed by XRPD, remaining as pattern #7
Tabernanthalog·Sorbate (A1270−076-A1, 50.0 mg, 1.0 wt) was charged to a 7 ml scintillation vial followed by hexafluoroisopropanol (HFIPA, 0.5 ml, 10 vol), to yield a clear solution. The solution was concentrated to dryness, by rotary evaporation, yielding an oil, that was allowed to stand undisturbed overnight.
Tabernanthalog·Sorbate (A1270−076-A1, 50.0 mg, 1.0 wt) was charged to a 7 ml scintillation vial, followed by methanol (300 μl, 6.0 vol). The solution was clarified by filtration into a 7 ml scintillation vial, containing diethyl ether (1.0 ml, 20.0 vol).
Tabernanthalog·Sorbate (A1270−076-A1, 102 mg, 1 wt) was charged to a 7.0 ml scintillation vial followed by methanol (1.9 ml, 19.0 vol). The solution was loaded into the spray drier apparatus.
The procedure yielded a brown powder (30 mg, 30% th.).
Tabernanthalog·Sorbate (A1270-076-A1, Form A) was charged to a 1.5 ml steel milling-vessel with a single 5 mm ball bearing. The sample was milled for 5.5 h at 30 Hz and yielded an off-white powder, that was analysed by XRPD, no change in crystallinity.

[5] = Dynamic vapour sorption (DVS) of selected salts (Example 8); assay type: physicochemical; conditions: 0 to 90 to 0% RH, 25° C., dm/dt 0.002%/min
Method: DVS: The moisture sorption properties of the feed API were analyzed by DVS Intrinsic instrument (Surface Measurement System). Approximately 20-50 mg of API was weighed on an aluminum pan and loaded into the instrument equilibrated at 25° C. The sample was allowed to equilibrate under dry atmosphere (0% relative humidity) for 60 minutes before increasing the humidity from 0% to 30% at 5% step increment and from 30% to 90% at 10% step increment. A desorption cycle was also applied from 90% to 30% (10% step) and from 30% to 0% (5% decrement). A rate of change in mass per time unit (dm/dt) of 0.002%/min was set as the equilibrium parameter. Kinetic and isotherm graphs were calculated.

[6] = Equilibrium humidity evaluation 75% RH/40° C., 10 days (Example 8, Experiment 6); assay type: physicochemical
Method: The experimental procedure that accompany this experiment is provided in Section G.ii.
All forms were maintained under constant equilibrium humidity (75% RH). XRPD, DSC, TGA, PLM and ^1H NMR analyses were performed on the absorbents at t=5 d and t=10 d, to confirm their physical fates and to determine the extent of residual solvent exchange or sequestration.
100 mg portions of Tabernanthalog salts ([…]) were placed in the relevant open vials. The powders were finely divided and distributed evenly over the base of the vial, such that equal material coverage across the panel was observed. These samples were then maintained 40° C. under 75% RH. The samples were sub-sampled at intervals of 5 and 10 days and analyzed by ^1H NMR, HPLC, XRPD, DSC, TGA and PLM, for evidence of phase change or chemical degradation.

[7] = Solubility determinations in SIF buffers FaSSIF, FeSSIF, FaSSGF (Example 8, Experiment 5)
Method in brief: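 Suspensions in FaSSIF, FeSSIF or FaSSGF held at 37° C for 24 h, sampled at set time points and centrifuged. Pellets checked by XRPD, wet and dried, for form change.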

[8] = Amorphisation activity: Crash cool
[9] = Amorphisation activity: Freeze dry
[10] = each timepoint up to 24 h, 37° C.

Structure (SMILES): COc1ccc2c3c([nH]c2c1)CCN(C)CC3 [Pattern #6a (Form A)]
- DVS 0 to 90 to 0% RH (dm/dt <0.002%) ([1]; desorption, 0.0% RH): 0.0381%
- DVS 0 to 90 to 0% RH (dm/dt <0.002%) ([1]; desorption, 5.0% RH): 0.1179%
- DVS 0 to 90 to 0% RH (dm/dt <0.002%) ([1]; desorption, 10.0% RH): 0.1551%
- DVS 0 to 90 to 0% RH (dm/dt <0.002%) ([1]; desorption, 15.0% RH): 0.1857%
- DVS 0 to 90 to 0% RH (dm/dt <0.002%) ([1]; desorption, 20.0% RH): 0.2126%
- DVS 0 to 90 to 0% RH (dm/dt <0.002%) ([1]; desorption, 25.0% RH): 0.2387%
- DVS 0 to 90 to 0% RH (dm/dt <0.002%) ([1]; desorption, 30.0% RH): 0.2656%
- DVS 0 to 90 to 0% RH (dm/dt <0.002%) ([1]; desorption, 40.0% RH): 0.3210%
- DVS 0 to 90 to 0% RH (dm/dt <0.002%) ([1]; desorption, 50.0% RH): 0.3797%
- DVS 0 to 90 to 0% RH (dm/dt <0.002%) ([1]; desorption, 60.0% RH): 0.4515%
- DVS 0 to 90 to 0% RH (dm/dt <0.002%) ([1]; desorption, 70.0% RH): 0.5442%
- DVS 0 to 90 to 0% RH (dm/dt <0.002%) ([1]; desorption, 80.0% RH): 0.6827%
- DVS 0 to 90 to 0% RH (dm/dt <0.002%) ([1]; desorption, 90.0% RH): 0.9766%
- DVS 0 to 90 to 0% RH (dm/dt <0.002%) ([1]; sorption, 0.0% RH): 0.0004%
- DVS 0 to 90 to 0% RH (dm/dt <0.002%) ([1]; sorption, 5.0% RH): 0.0627%
- DVS 0 to 90 to 0% RH (dm/dt <0.002%) ([1]; sorption, 10.0% RH): 0.0957%
- DVS 0 to 90 to 0% RH (dm/dt <0.002%) ([1]; sorption, 15.0% RH): 0.1397%
- DVS 0 to 90 to 0% RH (dm/dt <0.002%) ([1]; sorption, 20.0% RH): 0.1778%
- DVS 0 to 90 to 0% RH (dm/dt <0.002%) ([1]; sorption, 25.0% RH): 0.2093%
- DVS 0 to 90 to 0% RH (dm/dt <0.002%) ([1]; sorption, 30.0% RH): 0.2401%
- DVS 0 to 90 to 0% RH (dm/dt <0.002%) ([1]; sorption, 40.0% RH): 0.3145%
- DVS 0 to 90 to 0% RH (dm/dt <0.002%) ([1]; sorption, 50.0% RH): 0.4051%
- DVS 0 to 90 to 0% RH (dm/dt <0.002%) ([1]; sorption, 70.0% RH): 0.5451%
- DVS 0 to 90 to 0% RH (dm/dt <0.002%) ([1]; sorption, 80.0% RH): 0.6660%
- DVS 0 to 90 to 0% RH (dm/dt <0.002%) ([1]; sorption, 90.0% RH): 0.9766%
- solubility in FaSSGF [2]: soluble
- solubility in FaSSIF [2]: soluble
- solubility in FeSSIF [2]: soluble

Structure (SMILES): COc1ccc2c3c([nH]c2c1)CCN(C)CC3.O=C(O)/C=C/C(=O)O [Tabernanthalog•Monofumarate]
- Outcome ([3]; Hot plate heat up, sorbate 20 to 170 ° C., monofumarate 20 to 210 ° C.): Amorphous
- Outcome ([3]; Hot stage plate heat up, sorbate 20 to 170 ° C., monofumarate 20 to 210 ° C.): Almost Amorphous
- Outcome ([3]; Open Pan DSC, sorbate 20 to 165 to −20, O/N 20 to 230 ° C., monofumarate 20 to 210 to −20, O/N 20 to 210 ° C.): Amorphous
- Outcome ([3]; Sealed DSC, sorbate 20 to 165 to −20 to 230 ° C., monofumarate 20 to 210 to −20 to 210 ° C.): Amorphous
- Outcome ([3]; TGA, sorbate 20 to 165 to −20 to 230 ° C., monofumarate 20 to 210 to −20 to 210 ° C.): Amorphous
- Glass temperature (Tgs) ([3]; amorphous form generated in situ, sealed DSC thermocycle (Sample B1)): 63 °C
- Form by XRPD [4, 8]: Pattern #3
- Outcome [4, 8]: Crystalline
- Form by XRPD [4, 9]: Pattern #1
- Outcome [4, 9]: Crystalline
- Form by XRPD ([4]; Amorphisation activity: THF/N2): Pattern #11
- Outcome ([4]; Amorphisation activity: THF/N2): Crystalline

Structure (SMILES): COc1ccc2c3c([nH]c2c1)CCN(C)CC3.O=C(O)c1ccccc1 [tabernanthalog benzoate salt]
- DVS sorption/desorption isotherm [5]: slightly hygroscopic
- solubility in FaSSGF [2]: all dissolved except the tabernanthalog benzoate salt
- solubility in FaSSIF [2]: all dissolved except the tabernanthalog benzoate salt
- solubility in FeSSIF [2]: all dissolved except the tabernanthalog benzoate salt
- change in chemical purity (trended HPLC) ([6]; 75% RH/40° C., after 10 days): did not decrease significantly
- water uptake / hydrate formation (TGA, DSC) ([6]; 75% RH/40° C., t=5 d and t=10 d): no significant water uptake
- powder diffraction pattern versus input (form stability) ([6]; 75% RH/40° C., t=5 days and t=10 days): consistent with the input
- Tabernanthalog RRT = 1.00 (trended HPLC data, chemical purity) ([6]; Benzoate salt, input before humidity exposure): 98.56
- behaviour at 30 mg/ml in SIF buffers ([7]; FaSSIF, FeSSIF, FaSSGF, 37° C., 24 h): precipitated in all three SIF buffers
- stability of the suspended phase in FaSSIF (XRPD of pellet) [7, 10]: stable and did not disproportionate in FaSSIF
- stability of the suspended phase in FeSSIF (XRPD of pellet) [7, 10]: stable and did not disproportionate in FeSSIF
- decrease in chemical purity of wet pellets in FaSSIF ([7]; over the time points up to 24 h): ca. 1.22 % area
- fate of the suspended phase in FaSSGF (XRPD, 1H NMR) ([7]; up to 24 h, 37° C.): consistent with benzoic acid
